Experimental data from patent publication US6566352B1, “1 α-hydroxy-2-methylene-19-nor-pregnacalciferol and its uses” (Wisconsin Alumni Research Foudation, priority 2002, dated 2003).
Entries after “also recorded” stand apart in the source; their conditions may differ.

Experiments:
[1] = target: T1, full-length recombinant rat vitamin D receptor (Rattus norvegicus, UniProt P13053); test: competition with [3H]-1,25(OH)2D3 for binding to vitamin D receptor; settings: full-length recombinant rat vitamin D receptor (FIG. 2)
T1 construct: the full-length recombinant rat vitamin D receptor
T1 sequence (P13053 1-423): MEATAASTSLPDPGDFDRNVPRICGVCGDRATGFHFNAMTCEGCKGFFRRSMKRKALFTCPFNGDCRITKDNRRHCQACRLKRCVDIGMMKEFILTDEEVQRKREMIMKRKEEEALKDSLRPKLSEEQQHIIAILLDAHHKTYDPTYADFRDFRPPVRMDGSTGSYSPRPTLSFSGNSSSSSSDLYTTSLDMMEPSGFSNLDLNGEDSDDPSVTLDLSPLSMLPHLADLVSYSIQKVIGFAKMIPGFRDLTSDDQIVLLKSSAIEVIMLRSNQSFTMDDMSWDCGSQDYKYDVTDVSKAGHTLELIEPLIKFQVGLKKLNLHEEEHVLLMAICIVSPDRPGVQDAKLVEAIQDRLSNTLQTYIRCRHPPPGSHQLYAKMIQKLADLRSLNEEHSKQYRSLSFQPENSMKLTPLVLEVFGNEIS

[2] = system: intestinal calcium transport; test: intestinal calcium transport, everted gut sac method, vitamin D-deficient rats; type: in vivo, rat; settings: for intestinal calcium transport activity: vitamin D-deficient rats, in words, no dose named
Procedure: Intestinal calcium transport was evaluated in the same groups of animals using the everted gut sac method (FIG. 5).

[3] = serum calcium response in vitamin D-sufficient normal female rats on normal calcium diet; type: in vivo, rat; settings: for serum calcium (hypercalcemia): 5000 pmol/day for 7 days, oral or intraperitoneal, normal female rats, 4 hours after last dose
Procedure: Serum calcium response in vitamin D-sufficient animals on a normal calcium diet. […] The doses were administered to two separate groups of animals by either the oral or intraperitoneal route, and serum calcium levels were assessed 4 hours after the last dose.

[4] = system: calcium mobilization from bone; test: bone calcium mobilization in vitamin D-deficient rats on low calcium diet; type: in vivo, rat; settings: for bone calcium mobilization activity: in words, no dose named
Procedure: Calcium mobilization from bone and intestinal calcium absorption in vitamin D-deficient animals. Using vitamin D-deficient rats on a low calcium diet (0.02%), the activities of these compounds in intestine and bone were tested.

HL-60 cells = test: HL-60 cell differentiation into monocytes; type: cell-based; settings: for EC50: HL60 cells (FIG. 3)
Procedure: The differentiation of HL-60 promyelocytic into monocytes was determined as described by Ostrem et al (J. Biol. Chem. 262, 14164-14171, 1987).
VDR binding and HL60 cell differentiation.

[5] = system: porcine intestinal vitamin D receptor; test: binding to porcine intestinal vitamin D receptor; settings: compared to standard 1,25-(OH)2D3 (FIG. 2)
From the text: The battery of in vitro and in vivo assays described in […] et al (J. Med.

Ki [1] [nM]	calcemic activity from serum calcium after chronic doses ([3]; rats, chronic doses (FIG. 6), in words)	binding to the porcine receptor as compared to 1,25-(OH)2D3 [5]	EC50 (HL-60 cells; Homo sapiens, HL-60) [nM]	Structure (SMILES)	intestinal calcium transport activity [2]	serum calcium (hypercalcemia) [3]	mobilization of bone calcium ([4]; 260 pmol/day for 7 days)	EC50 (HL-60 cells) [nM]	intestinal calcium transport ([2]; 260 pmol/day)	serum calcium levels (bone calcium mobilization) ([4]; low calcium diet (0.02%), all dosages)	intestinal calcium transport ([2]; 1300 pmol/day (5-fold higher))	intestinal calcium transport ([2]; doses higher than 1300 pmol/day)	mobilization of bone calcium ([4]; 1300 pmol/day (5-fold))	bone calcium mobilization activity ([4]; low calcium diet (0.02%))	potency on HL-60 differentiation compared to 1,25(OH)2D3 (HL-60 cells; in words, FIG. 3)
0.3				C=C1C(O)CC(=CC=C2CCCC3(C)C2CCC3C(C)C)CC1O (stereo not drawn) [2-MP, 1α-hydroxy-2-methylene-19-nor-homopregnacalciferol]			did not result in mobilization of bone calcium	6	calcium transport activity equivalent to 1,25(OH)2D3		calcium transport activity equivalent to 1,25(OH)2D3	decreased this activity	without effect	little, if any, activity	
0.6				C=C1[C@H](O)CC(=C/C=C2\CCC[C@]3(C)[C@@H]([C@@H](C)CC)CC[C@@H]23)C[C@H]1O [2-MbisP, (20S)-1α-hydroxy-2-methylene-19-nor-bishomopregnacalciferol]			did not result in mobilization of bone calcium	7	do not promote intestinal calcium transport		do not promote intestinal calcium transport		without effect	little, if any, activity	
0.3	very little calcemic activity	bound equally well	17	C=C1[C@H](O)CC(=C/C=C2\CCC[C@]3(C)C(CC)CCC23)C[C@H]1O (stereo partly drawn) [2-Mpregna, 1α-hydroxy-2-methylene-19-nor-pregnacalciferol]	very little activity	no increase in serum calcium	did not result in mobilization of bone calcium		do not promote intestinal calcium transport		do not promote intestinal calcium transport		without effect	very little bone calcium mobilization activity; also recorded: little, if any, activity	almost as potent as 1,25(OH)2D3

The remaining lines, values behind:

Structure (SMILES)	Ki [1] [nM]	calcemic activity from serum calcium after chronic doses ([3]; rats, chronic doses (FIG. 6), in words)	binding to the porcine receptor as compared to 1,25-(OH)2D3 [5]	EC50 (HL-60 cells; Homo sapiens, HL-60) [nM]	intestinal calcium transport activity [2]	serum calcium (hypercalcemia) [3]	mobilization of bone calcium ([4]; 260 pmol/day for 7 days)	EC50 (HL-60 cells) [nM]	intestinal calcium transport ([2]; 260 pmol/day)	serum calcium levels (bone calcium mobilization) ([4]; low calcium diet (0.02%), all dosages)	intestinal calcium transport ([2]; 1300 pmol/day (5-fold higher))	intestinal calcium transport ([2]; doses higher than 1300 pmol/day)	mobilization of bone calcium ([4]; 1300 pmol/day (5-fold))	bone calcium mobilization activity ([4]; low calcium diet (0.02%))	potency on HL-60 differentiation compared to 1,25(OH)2D3 (HL-60 cells; in words, FIG. 3)
C[C@H](CCCC(C)(C)O)[C@H]1CC[C@H]2/C(=C/C=C3C[C@@H](O)C[C@H](O)C3)CCC[C@]12C [1,25(OH)2 19-nor-D3, 1α,25-dihydroxy-19-nor-vitamin D3, reference compound]	0.2				devoid of intestinal calcium transport activity	produced frank hypercalcemia	did not result in mobilization of bone calcium	4							
C=C1/C(=C\C=C2/CCC[C@]3(C)[C@@H]([C@H](C)CCCC(C)(C)O)CC[C@@H]23)C[C@@H](O)C[C@@H]1O [1,25(OH)2D3, 1α,25-dihydroxyvitamin D3, reference compound]								5	promotes a significant increase	increased serum calcium levels at all dosages					
